The test system of data set [1] is SMN2 minigene mRNA (SMN2-A minigene) in HEK293H cells. The experiment in a line: SMN2 minigene mRNA splicing RT-qPCR assay in cultured cells. The following applies: Homo sapiens, HEK293-H; concentration increasing full length SMN2 mRNA 1.5-fold relative to vehicle-treated cells; HEK293H cells with SMN2-A minigene, 24 hours, 7-point concentration data; read-out: EC1.5x for production of full length SMN2 mRNA. The format is cell-based, human. A digest of the protocol:
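Cells are seeded, left to attach 4-6 h, then dosed with test compound across seven concentrations and incubated 24 h. Lysates undergo RT-qPCR with primers/probe specific to the exon 7-containing minigene transcript, co-amplified with GAPDH. Fold change over vehicle is calculated, and EC1.5× marks the 1.5-fold point.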

For data set [2], the system named is Smn protein in SMA patient fibroblast cells (GM03813). Put plainly: Smn protein assay in cultured cells (SMN HTRF). The format is cell-based, human. Particulars: SMA patient fibroblast cells, 48 hours; for EC1.5x for Smn protein expression: 7-point concentration curve, SMN HTRF, concentration producing 1.5 times Smn protein vs DMSO vehicle control; for maximum fold (Fold) increase of Smn protein: 7-point concentration data, fold relative to vehicle control. A digest of the protocol: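 Patient-derived SMA fibroblasts are plated, given compound for 48 h, then lysed in RIPA buffer with protease inhibitors. Lysate Smn is detected by an anti-SMN d2/kryptate HTRF pair incubated overnight. The normalized ΔF is divided by the vehicle ΔF to give fold change, from which EC1.5× and maximum fold are taken.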
Background: In TR-FRET formats the signal depends on donor and acceptor labels being close together.

In general, melting point refers to the temperature, or range, at which the solid turns liquid.

On to `Cc1cn2cc(-c3cc(=O)n4cc(C5CCN(CCO)CC5)ncc4n3)cc(Cl)c2n1` [Compound 599, 2-(8-chloro-2-methylimidazo[1,2-a]pyridin-6-yl)-7-[1-(2-hydroxyethyl)piperidin-4-yl]-4H-pyrazino[1,2-a]pyrimidin-4-one], for which the melting point was 266 to 268 °C. In addition, the EC (1.5-fold increase) in data set [1] is less than 0.1 µM. Besides, in data set [2], the “EC1.5x for Smn protein expression” value is listed as “**** (an EC1.5x≤0.3 μM is indicated by four stars (****))” and the “maximum fold (Fold) increase of Smn protein” value (shortened to “maximum fold (Fold) increase”) is “***** (a fold increase >1.65 is indicated by five stars (*****))”.

As to `Cc1cn2nc(-c3cc(=O)n4cc(C5CCN(C6COC6)CC5)ccc4n3)cc2c(C)n1` [Compound 600, 2-(4,6-dimethylpyrazolo[1,5-a]pyrazin-2-yl)-7-[1-(oxetan-3-yl)piperidin-4-yl]-4H-pyrido[1,2-a]pyrimidin-4-one], the melting point is 150 to 152 °C. The EC (1.5-fold increase) in data set [1] was in the range of 0.1 to 0.3 µM. Also, in data set [2], the “EC1.5x for Smn protein expression” value is “** (an EC1.5× between >1 μM and ≤3 μM is indicated by two stars (**))”; the “maximum fold (Fold) increase” value is “**** (a fold increase between >1.5 and ≤1.65 is indicated by four stars (****))”.

The compound `CCN1CCN(c2ccc3nc(-c4cc5cc(C)nc(C)c5o4)cc(=O)n3c2)CC1` [Compound 601, 2-(5,7-dimethylfuro[2,3-c]pyridin-2-yl)-7-(4-ethylpiperazin-1-yl)-4H-pyrido[1,2-a]pyrimidin-4-one] came in with a melting point of 202 to 204 °C. The EC (1.5-fold increase) in data set [1] is less than 0.1 µM. Further, in data set [2], the “EC1.5x for Smn protein expression” value was “*** (an EC1.5× between >0.3 μM and ≤1 μM is indicated by three stars (***))”; the “maximum fold (Fold) increase” value is “**** (a fold increase between >1.5 and ≤1.65 is indicated by four stars (****))”.

Regarding `Cc1cn2nc(-c3cc(=O)n4cc(N5CCC6C(CCN6C)C5)ccc4n3)cc2c(C)n1` (stereo not shown) [Compound 602, 2-(4,6-dimethylpyrazolo[1,5-a]pyrazin-2-yl)-7-(1-methyloctahydro-5H-pyrrolo[3,2-c]pyridin-5-yl)-4H-pyrido[1,2-a]pyrimidin-4-one], the melting point lay in the range of 210 to 212 °C. The EC (1.5-fold increase) in data set [1] was less than 0.1 µM. Also, in data set [2], the “EC1.5x for Smn protein expression” value is “**** (an EC1.5x≤0.3 μM is indicated by four stars (****))”; the “maximum fold (Fold) increase” value was “**** (a fold increase between >1.5 and ≤1.65 is indicated by four stars (****))”.

In turn, `CCN1CCC(c2ccc3nc(-c4ccc5c(cnn5C)c4)cc(=O)n3c2)CC1` [Compound 604, 7-(1-ethylpiperidin-4-yl)-2-(1-methyl-1H-indazol-5-yl)-4H-pyrido[1,2-a]pyrimidin-4-one] displayed a melting point of 184 to 186 °C. Also, the EC (1.5-fold increase) in data set [1] is 0.3 to 1 µM. Also, in data set [2], the “EC1.5x for Smn protein expression” value is recorded as “**** (an EC1.5x≤0.3 μM is indicated by four stars (****))” and the “maximum fold (Fold) increase” value was “***** (a fold increase >1.65 is indicated by five stars (*****))”.

As to `Cn1ncc2cc(-c3cc(=O)n4cc(C5CCN(CCO)CC5)ccc4n3)ccc21` [Compound 605, 7-[1-(2-hydroxyethyl)piperidin-4-yl]-2-(1-methyl-1H-indazol-5-yl)-4H-pyrido[1,2-a]pyrimidin-4-one], the melting point was in the range of 204 to 206 °C. Besides, in data set [1], the EC (1.5-fold increase) is 0.3 to 1 µM. Besides, in data set [2], the “EC1.5x for Smn protein expression” value is “*** (an EC1.5× between >0.3 μM and ≤1 μM is indicated by three stars (***))”; the “maximum fold (Fold) increase” value was “***** (a fold increase >1.65 is indicated by five stars (*****))”.

`Cn1cc2cc(-c3cc(=O)n4cc(C5CCNCC5)ccc4n3)ccc2n1` [Compound 606, 2-(2-methyl-2H-indazol-5-yl)-7-(piperidin-4-yl)-4H-pyrido[1,2-a]pyrimidin-4-one] came in with a melting point of 194 to 196 °C. Moreover, the EC (1.5-fold increase) in data set [1] was less than 0.1 µM. In addition, in data set [2], the “EC1.5x for Smn protein expression” value is “** (an EC1.5× between >1 μM and ≤3 μM is indicated by two stars (**))”; the “maximum fold (Fold) increase” value is “**** (a fold increase between >1.5 and ≤1.65 is indicated by four stars (****))”.

Source of the values: patent publication US11753407B2, “Compounds for treating spinal muscular atrophy” (PTC Therapeutics, Inc., priority 2012, dated 2023).
